From patent US4323567A, “Arylmalonamido-1-oxadethiacephalosporins” (priority 1976, dated 1982)

What was measured:
Experiment in all cases: Minimal inhibitory concentration, nutrient agar plate
Escherichia coli H = type: cell-based; details: as sodium salt, inoculum size 10^8, pH 7.0, read-out: Minimal inhibitory concentration
E. coli JC-2 = type: cell-based; details: Escherichia coli, JC2; as sodium salt, inoculum size 10^8, pH 7.0; read-out: Minimal inhibitory concentration
E. coli 377 = type: cell-based, Escherichia coli; details: Escherichia coli, 377; as sodium salt, inoculum size 10^8, pH 7.0; read-out: Minimal inhibitory concentration
E. coli 73 = type: cell-based, Escherichia coli; details: Escherichia coli, 73; as sodium salt, inoculum size 10^8, pH 7.0; read-out: Minimal inhibitory concentration
[1] = test system: Serratia marsescens 13880; type: cell-based; details: Serratia, 13880; as sodium salt, inoculum size 10^8, pH 7.0; read-out: Minimal inhibitory concentration
Klebsiella pneumoniae = type: cell-based; details: as sodium salt, inoculum size 10^8, pH 7.0, read-out: Minimal inhibitory concentration
Klebsiella sp. 363 = type: cell-based; details: SP.363, as sodium salt, inoculum size 10^8, pH 7.0, read-out: Minimal inhibitory concentration
Enterobacter cloacae 233 = type: cell-based; details: Enterobacter cloacae, 233; as sodium salt, inoculum size 10^8, pH 7.0; read-out: Minimal inhibitory concentration
Proteus mirabilis PR-4 = type: cell-based; details: PR4, as sodium salt, inoculum size 10^8, pH 7.0, read-out: Minimal inhibitory concentration
P. morganii No. 9 = type: cell-based, Proteus morganii; details: Morganella morganii, NO.9; as sodium salt, inoculum size 10^8, pH 7.0; read-out: Minimal inhibitory concentration
P. vulgaris No. 3 = type: cell-based; details: Proteus vulgaris, NO.3; as sodium salt, inoculum size 10^8, pH 7.0; read-out: Minimal inhibitory concentration
P. vulgaris CN-329 = type: cell-based; details: Proteus vulgaris, CN329; as sodium salt, inoculum size 10^8, pH 7.0; read-out: Minimal inhibitory concentration
[2] = test system: Pseudomonas aeruginosa Denken; type: cell-based; details: as sodium salt, inoculum size 10^8, pH 7.0, read-out: Minimal inhibitory concentration
Ps. aeruginosa 25619 = type: cell-based, Pseudomonas aeruginosa; details: Pseudomonas aeruginosa, 25619; as sodium salt, inoculum size 10^8, pH 7.0; read-out: Minimal inhibitory concentration
Ps. aeruginosa 24 = type: cell-based, Pseudomonas aeruginosa; details: Pseudomonas aeruginosa, 24; as sodium salt, inoculum size 10^8, pH 7.0; read-out: Minimal inhibitory concentration

| Structure (SMILES) | MIC (Escherichia coli H) [µg/mL] | MIC (E. coli JC-2) [µg/mL] | MIC (E. coli 377) [µg/mL] | MIC (E. coli 73) [µg/mL] | MIC [1] [µg/mL] | MIC (Klebsiella pneumoniae) [µg/mL] | MIC (Klebsiella sp. 363) [µg/mL] | MIC (Enterobacter cloacae 233) [µg/mL] | MIC (Proteus mirabilis PR-4) [µg/mL] | MIC (P. morganii No. 9) [µg/mL] | MIC (P. vulgaris No. 3) [µg/mL] | MIC (P. vulgaris CN-329) [µg/mL] | MIC [2] [µg/mL] | MIC (Ps. aeruginosa 25619) [µg/mL] | MIC (Ps. aeruginosa 24) [µg/mL] |
| --- | --- | --- | --- | --- | --- | --- | --- | --- | --- | --- | --- | --- | --- | --- | --- |
| Cc1nnc(SCC2=C(C(=O)O)N3C(=O)[C@@H](NC(=O)Cn4cnnn4)[C@H]3SC2)s1 [Cefazolin, reference compound] | 1.6 | 3.2 | 100 | > 100 | > 100 | 3.2 | > 100 | > 100 | 6.2 | > 100 | > 100 | > 100 | > 100 | > 100 | > 100 |
| CO[C@@]1(NC(=O)C(C(=O)O)c2ccc(OC(N)=O)cc2)C(=O)N2C(C(=O)O)=C(CSc3nnnn3C)CO[C@@H]21 (stereo partly drawn) [Example III-25, 7β-(α-p-carbamoyloxyphenyl-α-carboxyacetamido)-7α-methoxy-3-(1-methyltetrazol-5-yl)thiomethyl-1-oxadethia-3-cephem-4-carboxylic acid] | 0.1 | 0.39 | 0.78 | 1.56 | 1.56 | 0.39 | 0.39 | 0.78 | 0.2 | 0.2 | 0.39 | 0.2 | > 100 | 25 | 100 |
